Converted amounts (≈) assume the structure as drawn. Each block holds one molecule with its values, some of them ahead of it.
Columns and labels:
Human alphaherpesvirus 1 = test: Antiviral activity against Herpes simplex virus 1infected in A549 cells assessed as viral growth inhibition incubated for 1 hrs; format: functional
[1] = test system: Encephalomyocarditis virus; test: Antiviral activity against Encephalomyocarditis virus infected in A549 cells assessed as viral growth inhibition incubated for 1 hrs; format: functional, organism-based; conditions: Cardiovirus A, A549, 1 h
Caco-2 [2] = test: Anticancer activity against human Caco-2 cells assessed as cell growth inhibition measured upto 72 hrs by MTT assay; format: functional, cell-based; conditions: Caco-2, 72 h
BGC-823 [3] = test: Anticancer activity against human BGC-823 cells assessed as cell growth inhibition measured upto 72 hrs by MTT assay; format: functional, cell-based; conditions: BGC-823, 72 h
PC-3 [4] = test: Anticancer activity against human PC-3 cells assessed as cell growth inhibition measured upto 72 hrs by MTT assay; format: functional, cell-based; conditions: PC-3, 72 h
MCF7 [5] = test: Anticancer activity against human MCF7 cells assessed as cell growth inhibition measured upto 72 hrs by MTT assay; format: functional, cell-based; conditions: MCF7, 72 h
SH-SY5Y = test: Anticancer activity against human SH-SY5Y cells assessed as cell viability incubated for 24 hrs by MTT assay relative to control; format: functional
Pichia kudriavzevii = test: Antifungal activity against Candida krusei assessed as fungal growth inhibition incubated for 24 to 48 hrs by microdilution method; format: functional; conditions: time 24-48 hrs
MCF7 [6] = test: Anticancer activity against human MCF7 cells assessed as cell growth incubation incubated for 72 hrs by MTT assay; format: functional, cell-based; conditions: MCF7, 72 h
PC-3 [7] = test: Anticancer activity against human PC-3 cells assessed as cell growth incubation incubated for 72 hrs by MTT assay; format: functional, cell-based; conditions: PC-3, 72 h
Candida albicans [8] = test: Antifungal activity against Candida albicans ATC90028 assessed as zone of inhibition; format: functional
Candida albicans [9] = test: Antifungal activity against Candida albicans ATC90028 assessed as […] growth inhibition; format: functional
T47D = test: Anticancer activity against human T47D cells assessed as cell growth inhibition; format: functional, cell-based
MCF7 [10] = test: Anticancer activity against human MCF7 cells assessed as cell growth inhibition; format: functional, cell-based
HeLa [11] = test: Anticancer activity against human HeLa cells assessed as cell growth inhibition incubated for 48 hrs; format: functional, cell-based
HepG2 = test: Anticancer activity against human HepG2 cells assessed as cell growth inhibition incubated for 48 hrs; format: functional, cell-based; conditions: HepG2, 48 h
[12] = Anticancer activity against human PMNL assessed as cell growth inhibition incubated for 5 mins by luminescence reader analysis; format: functional, cell-based
MDA-MB-231 = test: Anticancer activity against human MDA-MB-231 cells assessed as cell growth inhibition incubated for 72 hrs by MTT assay; format: functional, cell-based; conditions: MDA-MB-231, 72 h
MCF7 [13] = test: Anticancer activity against human MCF7 cells assessed as cell growth inhibition incubated for 72 hrs by MTT assay; format: functional, cell-based; conditions: MCF7, 72 h
HeLa [14] = test: Anticancer activity against human HeLa cells assessed as cell growth inhibition incubated for 72 hrs by MTT assay; format: functional, cell-based
[15] = Anticancer activity against human SWO-38 cells assessed as cell growth inhibition incubated for 48 hrs by MTT assay; format: functional, cell-based; conditions: SWO-38, 48 h
CNE-2 = test: Anticancer activity against human CNE-2 cells assessed as cell growth inhibition incubated for 72 hrs by MTT assay; format: functional, cell-based; conditions: CNE-2, 72 h
Plasmodium falciparum = test: […] inhibition incubated for 72 hrs by light microscopic analysis; format: functional, organism-based; conditions: K-1, 72 h
HL-60 = test: Anticancer activity against human HL-60 cells assessed as cell growth inhibition incubated for 72 hrs by MTT assay; format: functional, cell-based; conditions: HL-60, 72 h
SW-620 = test: Anticancer activity against human SW620 cells assessed as cell growth inhibition incubated for 72 hrs by MTT assay; format: functional, cell-based; conditions: SW-620, 72 h
A-375 = test: Anticancer activity against human A-375 cells assessed as cell growth inhibition incubated for 72 hrs by MTT assay; format: functional, cell-based; conditions: A-375, 72 h
Trypanosoma cruzi = test: Antibacterial activity against Trypanosoma cruzi Dm28c assessed as inhibition of bacterial growth incubated for 72 hrs by microplate reader analysis; format: functional, organism-based
Hs68 = test: Anticancer activity against human Hs68 cells assessed as cell growth inhibition incubated for 72 hrs by MTT assay; format: functional, cell-based; conditions: Hs68, 72 h
[16] = Anticancer activity against human WM35 cells assessed as cell growth inhibition incubated for 72 hrs by MTS assay; format: functional, cell-based; conditions: WM35, 72 h, pooled result: one value given for 4 cell lines, strains, targets or settings
UACC-903 = test: Antitumor activity against human UACC-903 cells xenografted with mouse assessed as reduction in tumor volume at 0.127 uM, ip administered alternate days for 4 week relative to control; format: functional; parameters: scale not given: the % may be the effect or the level left; conditions: time 4 weeks
[17] = Antitumor activity against human 1205Lu cells xenografted with mouse assessed as reduction in tumor volume at 0.127 uM, ip administered alternate days for 4 week relative to control; format: functional; parameters: scale not given: the % may be the effect or the level left; conditions: time 4 weeks
Carbonic anhydrase 1 = Carbonic anhydrase 1 (Homo sapiens, UniProt P00915); test: Inhibition of human carbonic anhydrase 1 assessed as inhibition constant
Carbonic anhydrase 2 = Carbonic anhydrase 2 (Homo sapiens, UniProt P00918); test: Inhibition of human carbonic anhydrase 2 assessed as inhibition constant
PC-3 [18] = test: Anticancer activity against human PC-3 cells assessed as cell growth inhibition incubated for 72 hrs by MTT assay; format: functional, cell-based; conditions: PC-3, 72 h
BGC-823 [19] = test: Anticancer activity against human BGC-823 cells assessed as cell growth inhibition incubated for 72 hrs by MTT assay; format: functional, cell-based; conditions: BGC-823, 72 h
Caco-2 [20] = test: Anticancer activity against human Caco-2 cells assessed as cell growth inhibition incubated for 72 hrs by MTT assay; format: functional, cell-based; conditions: Caco-2, 72 h
PANC-1 = test: Anticancer activity against human PANC-1 cells assessed as cell growth inhibition by crystal violet staining based assay; format: functional
[21] = Anticancer activity against human Ela-myc- cells assessed as cell growth inhibition by crystal violet staining based assay; format: functional; conditions: Ela-myc-1 cell

Chain of Carbonic anhydrase 1 (P00915 whole entry): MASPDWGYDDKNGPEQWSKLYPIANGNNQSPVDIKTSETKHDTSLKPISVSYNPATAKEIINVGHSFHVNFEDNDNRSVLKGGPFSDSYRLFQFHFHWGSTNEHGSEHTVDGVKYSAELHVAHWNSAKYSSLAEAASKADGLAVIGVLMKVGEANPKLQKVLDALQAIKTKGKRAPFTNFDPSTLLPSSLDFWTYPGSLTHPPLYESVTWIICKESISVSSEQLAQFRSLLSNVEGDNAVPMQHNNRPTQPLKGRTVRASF

SMILES: CC(=O)n1[se]c2ccccc2c1=O
- MIC (Human alphaherpesvirus 1): 4 mg/L (≈ 16.7 µM)
- IC50 [1]: 6 mg/L (≈ 25 µM)

- IC50 (Caco-2 [2]): 1.9 µM
- IC50 (BGC-823 [3]): 1.9 µM
- IC50 (PC-3 [4]): 1.9 µM
- IC50 (MCF7 [5]): 1.9 µM
SMILES: N#C[Se]CCCNC(=O)c1ccccc1Nc1cccc(C(F)(F)F)c1

SMILES: CCOC(=O)n1[se]c2ccccc2c1=O
- MIC (Human alphaherpesvirus 1): 10 mg/L (≈ 37 µM)
- IC50 [1]: 10 mg/L (≈ 37 µM)

SMILES: O=c1c2ccccc2[se]n1-c1ccccn1
- Activity (SH-SY5Y): 84%

SMILES: Brc1ccc(-c2c[se]c(NN=C3CCSCC3)n2)cc1
- MIC (Pichia kudriavzevii): 3.91 mg/L (≈ 9.42 µM)

SMILES: C=CCn1[se]c2ccccc2c1=O
- Activity (SH-SY5Y): 86%

SMILES: O=C(O)C[Se]C(=O)Cc1ccccc1
- IC50 (MCF7 [6]): 0.006 µM
- IC50 (PC-3 [7]): 2.9 µM

- MIC (Candida albicans [9]): 6.25 mg/L (≈ 18.1 µM)
SMILES: Clc1ccccc1C(c1ccccc1)(c1ccccc1)n1ccnc1 [CLOTRIMAZOLE]
- inhibition zone (IZ) (Candida albicans [8]): 28 mm

SMILES: O=C(NC(=[Se])Nc1ccccc1)c1cccs1
- IC50 (T47D): 6.1 µM
- IC50 (MCF7 [10]): 4.2 µM

- IC50 (HeLa [11]): 3.96 µM
- IC50 (HepG2): 4.45 µM
SMILES: CN(C)c1ccc(/C=C/c2c3ccccc3c(/C=C/c3ccc(OCCCCCC[Se][Se]CCCCCCOc4ccc(/C=C/c5c6ccccc6c(/C=C/c6ccc(N(C)C)cc6)c6ccccc56)cc4)cc3)c3ccccc23)cc1

SMILES: Clc1ccc(-c2c[se]c(NN=C3CCSCC3)n2)cc1
- MIC (Pichia kudriavzevii): 3.91 mg/L (≈ 10.5 µM)

SMILES: [Se]=C(c1ccccc1)N1CCCCC1
- IC50 [12]: 11.3 µM

SMILES: c1ccc2[nH]c(-c3ccc4n[se]nc4c3)nc2c1
- IC50 (MDA-MB-231): 12.3 µM
- IC50 (MCF7 [13]): 15.4 µM

SMILES: O=C(O)C[Se]C(=O)c1ccccc1
- IC50 (MCF7 [6]): 0.09 µM
- IC50 (PC-3 [7]): 6.8 µM

SMILES: O=[N+]([O-])c1ccc2n[se]nc2c1
- IC50 (HeLa [14]): 4.8 µM

SMILES: Nc1ccc(-c2ccc3n[se]nc3c2)cc1N
- IC50 [15]: 22.5 µM

SMILES: N[C@@H](C[Se][Se]C[C@H](N)C(=O)O)C(=O)O
- IC50 (CNE-2): 5.6 µM
- IC50 (Plasmodium falciparum): 65 µM
- IC50 (HL-60): 34.5 µM
- IC50 (SW-620): 7.3 µM
- IC50 (A-375): 3.6 µM

SMILES: NC(=[Se])NN=C(c1cccc(Br)c1)c1cccc(Br)c1
- IC50 (Trypanosoma cruzi): 1.2 µM

SMILES: C[Se]C[C@H](N)C(=O)O [METHYLSELENOCYSTEINE]
- IC50 (MCF7 [13]): 193 µM
- IC50 (Hs68): 50 µM
- IC50 (SW-620): 633 µM
- IC50 (A-375): 54 µM

SMILES: NC(CCC(=O)NC(CS[Se]Cc1cc(-c2ccccc2)n(-c2ccc(S(N)(=O)=O)cc2)n1)C(=O)NCC(=O)O)C(=O)O (configuration not stated)
- IC50 [16]: 7.66 µM
- Activity (UACC-903): 70%
- Activity [17]: 70%

SMILES: [Se]=P(c1ccccn1)(c1ccccn1)c1ccccn1
- Ki (Carbonic anhydrase 1): 0.0563 µM
- Ki (Carbonic anhydrase 2): 0.0537 µM

- IC50 (MCF7 [13]): 6.8 µM
- IC50 (PC-3 [18]): 6.6 µM
- IC50 (BGC-823 [19]): 8.3 µM
- IC50 (Caco-2 [20]): 3.9 µM
SMILES: O=C(NCCC[Se][Se]CCCNC(=O)c1ccccc1Nc1cccc(C(F)(F)F)c1)c1ccccc1Nc1cccc(C(F)(F)F)c1

SMILES: CCCC/C(=N\NC(N)=[Se])c1ccc(Cl)c(Cl)c1
- IC50 (Trypanosoma cruzi): 1.2 µM

SMILES: CCN(CC)C(=[Se])c1ccc(Cl)cc1
- IC50 [12]: 20.3 µM

SMILES: C[Se](=O)O [METHYLSELENINIC ACID]
- IC50 (Plasmodium falciparum): 10 µM
- IC50 (PANC-1): 2.6 µM
- IC50 (MCF7 [10]): 2 µM
- IC50 [21]: 3.2 µM
